We go through 75 compounds from the RepoRT retention time repository (doi:10.1021/acs.analchem.2c02893).

This data set can be described thus: RP, Thermo Scientific Acclaim RSLC 120 C18, 100 × 2.1 mm, 2.2 µm, 30 °C, 0.2 mL/min, estimated dead time 1.1 min; A: 90% water + 10% methanol + 0.01% formic acid + 5 mM ammonium formate, pH 3.61; B: methanol + 0.01% formic acid + 5 mM ammonium formate, pH 3.61; gradient (min/%B) 0/1 1/1 2/39 13/99.9 15/99.9 15.1/1 20.1/1. Conditions: stereoisomer not certain.

For `Clc1ccc2c(c1)C(N1CCNCC1)=Nc1ccccc1O2` [Amoxapine], the LC retention time is 7.64 min.

Regarding `CC(N)Cc1ccccc1F` (stereo not given) [Amphetamine (2-F-)], the LC retention time is 4.24 min.

For the compound `CC(N)Cc1cccc(F)c1` (stereo not given) [Amphetamine (3-F-)], the LC retention time was 4.39 min.

As for `CC(N)Cc1ccc(F)cc1` (stereo not given) [Amphetamine (4-F-)], the LC retention time is 4.39 min.

For the compound `CNC(C)Cc1ccccc1F` (stereo not given) [Amphetamine-2-F-Methyl (2-F-methamphetamine)], the LC retention time was 4.33 min.

With `Cc1ccccc1CC(C)N` (stereo not given) [Amphetamine-2-methyl (ortetamine)], the LC retention time was 5.17 min.

For the compound `CNC(C)Cc1cccc(F)c1` (stereo not given) [Amphetamine-3-F-Methyl (3-F-methamphetamine)], the LC retention time was 4.39 min.

As for `Cc1cccc(CC(C)N)c1` (stereo not given) [Amphetamine-3-methyl], the LC retention time is 5.17 min.

For `CNC(C)Cc1ccc(F)cc1` (stereo not given) [Amphetamine-4-F-Methyl (4-F-methamphetamine)], the LC retention time is 4.43 min.

As to `CNC(C)Cc1ccccc1` (stereo not given) [Amphetamine-Methyl (methamphetamine)], the LC retention time was 4.21 min.

Turning to `CCNC(C)Cc1ccccc1` (stereo not given) [Amphetamine-N-Ethyl], the LC retention time was 4.4 min.

Take `CCCNC(C)Cc1ccccc1` (stereo not given) [Amphetamine-N-Propyl]: the LC retention time is 4.83 min.

In the case of `CC(N)Cc1ccc(O)cc1` (stereo not given) [Amphetamine-P-hydroxy], the LC retention time is 2.98 min.

In the case of `CC1(C)SC2C(NC(=O)C(N)c3ccccc3)C(=O)N2C1C(=O)O` (stereo not given) [Ampicillin], the LC retention time was 4.21 min.

For the compound `Nc1cc(-c2ccncc2)c[nH]c1=O` [Amrinone], the LC retention time is 2.88 min.

Consider `COc1ccc(C(O)(c2cncnc2)C2CC2)cc1` (stereo not given) [Ancymidol], for which the LC retention time is 7.15 min.

As for `Clc1nc(Cl)nc(Nc2ccccc2Cl)n1` [Anilazine (Dyrene)], the LC retention time is 9.74 min.

On to `COP(=S)(OC)SCC(=O)N(c1ccc(Cl)cc1)C(C)C` [Anilofos], for which the LC retention time was 10.8 min.

As for `c1ccc(CN(CC2=NCCN2)c2ccccc2)cc1` [Antazoline], the LC retention time was 6.41 min.

For `Cc1c(N)c(=O)n(-c2ccccc2)n1C` [Antipyrine-4-Amino (4-AAP)], the LC retention time was 4.69 min.

As for `CC(=O)Nc1c(C)n(C)n(-c2ccccc2)c1=O` [Antipyrine- 4-Acetamido], the LC retention time is 3.94 min.

On to `Cc1c(NC=O)c(=O)n(-c2ccccc2)n1C` [Antipyrine- 4-Formylamino], for which the LC retention time was 3.96 min.

As to `CN1CCc2cccc3c2C1Cc1ccc(O)c(O)c1-3` (stereo not given) [Apomorphine], the LC retention time was 4.28 min.

As for `NCC(O)c1ccccc1` (stereo not given) [Apophedrin  (Phenylethanolamine)], the LC retention time is 2.84 min.

Turning to `Nc1cc(Cl)c(NC2=NCCN2)c(Cl)c1` [Apraclonidin], the LC retention time was 3.09 min.

For the compound `CCN(CC)CCCN(c1ccccc1)C1Cc2ccccc2C1` [Aprindine], the LC retention time is 8.85 min.

Turning to `C=CCC(C(=O)NC(N)=O)C(C)C` (stereo not given) [Apronalide], the LC retention time is 6.94 min.

On to `CC(COc1ccc(C(C)(C)C)cc1)OS(=O)OCCCl` (stereo not given) [Aramite (total)], for which the LC retention time is 12.2 min.

With `COC(=O)C1=CCCN(C)C1` [Arecoline], the LC retention time is 1.74 min.

Consider `O=C1CCc2ccc(OCCCCN3CCN(c4cccc(Cl)c4Cl)CC3)cc2N1` [Aripiprazole], for which the LC retention time was 8.63 min.

As for `Nc1ncnc2c1ncn2Cc1c(F)cccc1Cl` [Arprinocid], the LC retention time was 6.7 min.

Consider `CN1CC2c3ccccc3Oc3ccc(Cl)cc3C2C1` (stereo not given) [Asenapine], for which the LC retention time was 7.39 min.

For the compound `COC(=O)C(Cc1ccccc1)NC(=O)C(N)CC(=O)O` (stereo not given) [Aspartame], the LC retention time was 5.01 min.

As to `CCCOP(=S)(OCCC)OP(=S)(OCCC)OCCC` [Aspon], the LC retention time is 12.9 min.

As to `COc1ccc(CCN2CCC(Nc3nc4ccccc4n3Cc3ccc(F)cc3)CC2)cc1` [Astemizole], the LC retention time was 8.03 min.

As for `COC(=O)NS(=O)(=O)c1ccc(N)cc1` [Asulam], the LC retention time was 3.41 min.

Turning to `COC(=O)NC(C(=O)NC(Cc1ccccc1)C(O)CN(Cc1ccc(-c2ccccn2)cc1)NC(=O)C(NC(=O)OC)C(C)(C)C)C(C)(C)C` (stereo not given) [Atazanavir], the LC retention time was 10.9 min.

Regarding `CC(C)NCC(O)COc1ccc(CC(=O)O)cc1` (stereo not given) [Atenolol acid (Metoprolol acid)], the LC retention time is 3.93 min.

Turning to `NCC(O)COc1ccc(CC(N)=O)cc1` (stereo not given) [Atenolol-desisopropyl], the LC retention time is 2 min.

As for `CC(C)NCC(O)COc1ccc(CC(N)=O)cc1` (stereo not given) [Atenolol], the LC retention time is 3.09 min.

With `CNCCC(Oc1ccccc1C)c1ccccc1` (stereo not given) [Atomoxetine], the LC retention time is 7.63 min.

With `CC(C)C(=O)C1(C(=O)Nc2ccccc2)OC1(C(=O)c1ccc(F)cc1)c1ccccc1` (stereo not given) [Atorvastatin IMP D (epoxide)], the LC retention time was 10.3 min.

With `CC(C)c1c(C(=O)Nc2ccccc2)c(-c2ccccc2)c(-c2ccc(F)cc2)n1CCC(O)CC(O)CC(=O)O` (stereo not given) [Atorvastatin], the LC retention time is 9.96 min.

`CCNc1nc(NC(C)C)nc(OC)n1` [Atraton]: the LC retention time was 7.81 min.

Take `CCNc1nc(NC(C)C)[nH]c(=O)n1` [Atrazine-2-hydroxy]: the LC retention time was 5.03 min.

Take `CC(C)Nc1nc(N)[nH]c(=O)n1` [Atrazine-desethyl-2-hydroxy (=Prometon-Hydroxy-Desisopropyl)]: the LC retention time was 3.16 min.

Regarding `Nc1nc(N)nc(Cl)n1` [Atrazine-desethyl-desisopropyl], the LC retention time is 3.03 min.

Regarding `CC(C)Nc1nc(N)nc(Cl)n1` [Atrazine-desethyl], the LC retention time was 5.73 min.

Consider `CN1C2CCC1CC(OC(=O)C(CO)c1ccccc1)C2` (stereo not given) [Atropine], for which the LC retention time was 4.36 min.

Consider `COc1ccc(CNc2nc(N3CCCC3CO)ncc2C(=O)NCc2ncccn2)cc1Cl` (stereo not given) [Avanafil], for which the LC retention time was 8.76 min.

For `CCC(C)C1OC2(C=CC1C)CC1CC(CC=C(C)C(OC3CC(OC)C(OC4CC(OC)C(O)C(C)O4)C(C)O3)C(C)C=CC=C3COC4C(O)C(C)=CC(C(=O)O1)C34O)O2` (stereo not given) [AvermectinB1a (Abamectin)], the LC retention time was 13.6 min.

As to `COC1CC(OC2C(C)OC(OC3C(C)=CCC4CC(CC5(C=CC(C)C(C(C)C)O5)O4)OC(=O)C4C=C(C)C(O)C5OCC(=CC=CC3C)C45O)CC2OC)OC(C)C1O` (stereo not given) [AvermectinB1b (Abamectin)], the LC retention time is 13.4 min.

As for `OC(c1ccccc1)(c1ccccc1)C1CCNCC1` [Azacyclonol], the LC retention time is 6.19 min.

With `CC=C(C)C(=O)OC1CC(OC(C)=O)C2(C(=O)OC)COC3C2C12COC(O)(C(=O)OC)C2C(C)(C12OC1(C)C1CC2OC2OC=CC21O)C3O` (stereo not given) [Azadirachtin], the LC retention time is 7.56 min.

As for `CCCC1C(=O)N2C(N(C)C)=Nc3ccc(C)cc3N2C1=O` (stereo not given) [Azapropazone], the LC retention time was 6.54 min.

Turning to `CN1CCC(=C2c3ccccc3CCc3cccnc32)CC1` [Azatadine], the LC retention time is 5.99 min.

Regarding `CN1CCCC(n2nc(Cc3ccc(Cl)cc3)c3ccccc3c2=O)CC1` (stereo not given) [Azelastine], the LC retention time was 7.59 min.

Consider `COc1cc(OC)nc(NC(=O)NS(=O)(=O)c2c(-c3nnn(C)n3)cnn2C)n1` [Azimsulfuron], for which the LC retention time is 7.62 min.

For `CCOP(=S)(OCC)SCn1nnc2ccccc2c1=O` [Azinphos-ethyl], the LC retention time was 10.2 min.

In the case of `COP(=S)(OC)SCn1nnc2ccccc2c1=O` [Azinphos-methyl (Guthion)], the LC retention time is 8.89 min.

Take `CSc1nc(N=[N+]=[N-])nc(NC(C)C)n1` [Aziprotryne]: the LC retention time was 9.71 min.

For the compound `CCC1OC(=O)C(C)C(OC2CC(C)(OC)C(O)C(C)O2)C(C)C(OC2OC(C)CC(N(C)C)C2O)C(C)(O)CC(C)CN(C)C(C)C(O)C1(C)O` (stereo not given) [Azithromycin], the LC retention time is 5.98 min.

For the compound `COC=C(C(=O)O)c1ccccc1Oc1cc(Oc2ccccc2C#N)ncn1` [Azoxystrobin acid], the LC retention time is 8.18 min.

For `COC=C(C(=O)OC)c1ccccc1Oc1cc(Oc2ccccc2C#N)ncn1` [Azoxystrobin], the LC retention time is 9.02 min.

Take `O=C(Oc1cccc2cccnc12)c1cn(CC2CCCCC2)c2ccccc12` [BB-22]: the LC retention time is 12.4 min.

Take `CCC(N)Cc1ccc2c(c1)OCO2` (stereo not given) [BDB]: the LC retention time is 4.73 min.

Consider `NCC(CC(=O)O)c1ccc(Cl)cc1` (stereo not given) [Baclofen], for which the LC retention time is 4.27 min.

On to `CN(C)C(=O)Oc1cc(OC(=O)N(C)C)cc(C(O)CNC(C)(C)C)c1` (stereo not given) [Bambuterol], for which the LC retention time is 5.16 min.

`CCN(CCO)CCn1c(Cc2ccccc2)nc2c1c(=O)n(C)c(=O)n2C` [Bamifylline]: the LC retention time was 5.24 min.

In the case of `CN1CCC(N(Cc2ccccc2)c2ccccc2)CC1` [Bamipine], the LC retention time is 7.77 min.

Consider `O=C(Nc1cccc(Cl)c1)OCC#CCCl` [Barban], for which the LC retention time was 9.74 min.

On to `O=C1N(CCN2CCCCC2)C(=O)C(c2ccccc2)(N2CCCCC2)C(=O)N1CCN1CCCCC1` [Barverin], for which the LC retention time is 7.64 min.

With `O=C(CCCl)NCc1ccccc1` [Beclamide], the LC retention time was 6.27 min.

`CCC(Oc1ccc(F)c(C(F)(F)F)c1)C(=O)NCc1ccccc1` (stereo not given) [Beflubutamide]: the LC retention time is 10.6 min.

On to `CC(=O)c1cc2cccc(OCC(O)CNC(C)C)c2o1` (stereo not given) [Befunolol], for which the LC retention time is 4.93 min.
